The nature of the series: Human HepG2 cell viability assay in 384 well format. The series is classed as toxicity, cell-based. Set-up: dose 125 nL, time 70.5 hour; concentration not given beside the values. Conditions: HepG2 cells, read-out: Inhibition.

Results on 70 molecules are retold here after ChEMBL document CHEMBL3507680, “University of Dundee, Gates Library screen for HepG2 cell viability”.

Consider `Cc1nc[nH]c1-c1nccn1CCN(C)S(C)(=O)=O`, for which the cytotoxicity at 70.5 h was 3.1%.
For `O=C(CCc1cccs1)N1CCc2[nH]nc(COc3ccccc3)c2C1` the value was 2.22%; for `CCCS(=O)(=O)N1CCCC(CCC(=O)N(C)CCc2ccccn2)C1` (stereo not given), -0.331%; for `Cc1cncc(C(=O)N2CCC3(CC2)C(=O)Nc2ccccc23)c1`, -7.06%.
Regarding `CN(C)S(=O)(=O)c1ccc(CNC(=O)c2cn3c(n2)CNCC3)cc1`, the cytotoxicity at 70.5 h came to 14.9%.
In the case of `Cn1c(CCC(=O)N2CCCC3(CC2)CNC(=O)O3)nc2cccnc21` (stereo not given), the cytotoxicity at 70.5 h amounted to 44%.
Regarding `CN(Cc1ccccc1)c1ncccc1CNC1CCC1`, the cytotoxicity at 70.5 h is -2.38%.
On to `COCCCN(Cc1cnc(-c2cccs2)nc1)C1CCN(C)CC1`, for which the cytotoxicity at 70.5 h was -12%.
As for `c1cncc(NCCNC2CCSCC2)c1`, the cytotoxicity at 70.5 h was -2.74%.
As for `CCN1C[C@@H](C(=O)O)[C@H](c2cccc(OC)c2)C1`, the cytotoxicity at 70.5 h was determined as 5.16%.
For `COc1cccc(S(=O)(=O)N2CCN(C)[C@@H]3CS(=O)(=O)C[C@@H]32)c1` the value was -4.74%.
Turning to `O=c1cc(-c2ccncc2)nc(-c2ccc(CN3CC[C@H](O)C3)cc2)[nH]1`, the cytotoxicity at 70.5 h is -6.15%.
For `Cc1cc(C(F)(F)F)nn1CCNC(=O)C(C)n1ccnc1C(C)C` (stereo not given) the value was 10.3%; for `CCc1nc(N)nc(N2CCCC3(CCN(C)CC3)CC2)c1C`, 0.239%.
With `CCc1cnc(N)nc1N(C)CCc1cnn(C)c1`, the cytotoxicity at 70.5 h amounted to 45.7%.
For `C=C(C)COc1ccccc1C(=O)NCCCc1nnn[nH]1` the value was -13%.
In the case of `C=C(C)COc1ccccc1NC(=O)N1CCOCC(CO)C1` (stereo not given), the cytotoxicity at 70.5 h is 23.5%.
As for `CCc1ccc(C2CC(=O)Nc3cc(NS(C)(=O)=O)ccc32)o1` (stereo not given), the figure is 31.4%; as for `Cc1cc(C)n(CC2(CNC(=O)C(c3ccccc3C)N(C)C)CC2)n1` (stereo not given), -10.8%; as for `CCc1nn(C)c(Cl)c1CN(CC)Cc1cnn(CC)c1`, -6.7%.
With `CCc1nnc(CN(C)c2cc(C)nc3c(C)c(C)nn23)o1`, the cytotoxicity at 70.5 h was -2.11%.
With `COc1ccc(N2CCN(C(=O)CCn3nnnc3C)CC2(C)C)cc1`, the cytotoxicity at 70.5 h was 14%.
In the case of `CN(CCO)Cc1nnc(C2CCN(C(=O)C3CCOCC3)CC2)n1C`, the cytotoxicity at 70.5 h came to 1.69%.
As for `CN(Cc1ccncn1)C(=O)CCC(=O)NC1CCCC1`, the figure is -9.64%; as for `COCC(C)Nc1ccc(-c2nc(Cc3ccc(F)cc3)no2)cn1` (stereo not given), 27.4%; as for `CSCCC1CC(=O)Nc2cc(O)c(C)cc21` (stereo not given), 25.3%.
Take `CCNc1ncc(C(=O)NC2COC3(CCCC3)C2)cn1` (stereo not given): the cytotoxicity at 70.5 h was -3.75%.
For `COc1ccc(Cn2cc(C(=O)N(C)Cc3cnccn3)nn2)cc1` the value was -14.3%; for `Cc1nc2ccc(C(=O)N3CCN(CCO)[C@@H]4CS(=O)(=O)C[C@@H]43)cc2o1`, -5.42%.
As for `CC(C)C(=O)NCC(=O)NCC1CCN(c2cnn(C)c(=O)c2)CC1`, the figure is 23.1%; as for `Cc1cc(C2CCC2)nc(N2CCC3(CCNC(=O)CC3)CC2)n1`, -13%.
Turning to `CCn1cc(C(=O)N2CCCC3(CCC(=O)N(CCC(C)C)C3)C2)cn1` (stereo not given), the cytotoxicity at 70.5 h is -5.07%.
Regarding `CCCc1nc(NCc2c(C)nn(CCC)c2C)c2cnn(C)c2n1`, the cytotoxicity at 70.5 h is -9.62%.
For the molecule `CN(CCCc1nccn1C)c1nccc(N2CCC(O)C2)n1` (stereo not given), the cytotoxicity at 70.5 h turned out to be 7.29%.
As for `CC[C@H](Nc1nc(C(C)C)nc2c1cnn2C)c1ccccc1`, the cytotoxicity at 70.5 h is -8.04%.
As for `CN(Cc1cc[nH]n1)C(=O)c1cn(Cc2c(F)cccc2F)nn1`, the figure is -8.9%.
As for `COc1ccc(OCc2cc(C(=O)N3C[C@@H](C)O[C@@H](C)C3)n[nH]2)c(Cl)c1`, the figure is -8.42%; as for `CCn1ncnc1CN1CCC(CNC(=O)c2cccc(C)c2)C1` (stereo not given), -15.4%.
As for `Cc1cc(C)n(C2CCN(c3ncnc4c3CCNCC4)C2)n1` (stereo not given), the figure is -9.03%; as for `COc1ccc(Cl)cc1-n1nc(C2CCCC2)nc1Cn1cnnn1`, 5.4%.
For the molecule `CC(C)C1CN(C(=O)c2cc(C3CC3)n[nH]2)CCC(=O)N1CC1CC1` (stereo not given), the cytotoxicity at 70.5 h was -3.1%.
For `CSCc1noc(CNC(=O)C2CCN(C3CCCCC3)CC2)n1` the value was -21.4%; for `COc1cc(NCC(O)CN2CCCCCC2)ncn1` (stereo not given), -7.58%; for `Cc1nc(C(C)N2Cc3ncccc3C2=O)cs1` (stereo not given), -12.4%.
Take `CCNC(=O)[C@@H]1C[C@@H](NC(=O)c2cccn2C)CN1CCCSC`: the cytotoxicity at 70.5 h is -6.56%.
As to `CN1CCCCCC1C(=O)NCCCn1ncc2ccccc21` (stereo not given), the cytotoxicity at 70.5 h was -11.3%.
As for `Cc1cc2nc(C(C)C)cc(N(C)CC3CCCN(CCO)C3)n2n1` (stereo not given), the figure is -2.47%; as for `CCn1cc(CN2CCC(CCC(=O)Nc3ccccc3Cl)CC2)cn1`, 12.4%.
For `CC1CCN(S(=O)(=O)N2CCCC(c3cccc(C(=O)O)c3)C2)CC1` (stereo not given) the value was -12.1%; for `Cc1cc(C(=O)N2CCCC(C(=O)c3nccn3C)C2)c(=O)[nH]c1C` (stereo not given), 7.95%.
For `CN(C)C(C(=O)NCc1cc(C(C)(C)C)n[nH]1)c1ccc(F)cc1` (stereo not given) the value was -4.44%.
For `Cc1cc(C2CCCCN2C(=O)CN2CC3(CCNCC3)OC2=O)no1` (stereo not given), the cytotoxicity at 70.5 h was -6.52%.
For `COCCCN1CC2(CCCN(c3ncc4nc[nH]c4n3)C2)CCC1=O` (stereo not given) the value was -11.3%.
In the case of `CCOCC1CCN(C(=O)C(c2ccccc2F)N(C)C)CC1` (stereo not given), the cytotoxicity at 70.5 h was -8.49%.
With `CCc1nc(N)nc(N2CCCC3(CCOCC3)C2)c1C`, the cytotoxicity at 70.5 h is -7.63%.
`C1CCC(c2nnc3sc(C4CCCO4)nn23)C1` (stereo not given): the cytotoxicity at 70.5 h came to 10.1%.
As for `CC(C)N1CC(c2ncc(-c3ccc4c(c3)OCCO4)[nH]2)CC1=O` (stereo not given), the figure is -5.64%; as for `Cc1c(CNC(=O)C2CCCCCN2C)oc2ccccc12` (stereo not given), -0.804%.
For `O=C(O)c1cc(-c2ccc3c(c2)OCO3)cc(S(=O)(=O)NC2CC2)c1` the value was -11.6%; for `Cc1cnc(NCC(C)(C)N2CCCCC2)nc1`, -5.95%.
For `Cc1nn(CCO)cc1CN1CCCN(C2CCCC2)CC1` the value was 12.8%; for `CC(=O)N1CCc2nc(N(C)C)nc(NCCc3ccccc3)c2CC1`, -9.06%.
For `CCCC1C=CCN1C(=O)c1cc(COc2ccc3c(c2)OCO3)[nH]n1` (stereo not given), the cytotoxicity at 70.5 h was -11%.
Consider `CCCN1CC2(CCN(C)CC2)CC1C(=O)NCCn1nc(C)nc1C` (stereo not given), for which the cytotoxicity at 70.5 h was determined as 6.07%.
`CC(Nc1nc(-c2ccccc2)nc2c1CCNCC2)c1nccs1` (stereo not given): the cytotoxicity at 70.5 h was 2.31%.
For `CC(c1cccc(-c2nccn2CCc2cn[nH]c2)c1)N(C)C` (stereo not given) the value was 4.99%; for `CC(C)[C@H]1CN(C2Cc3ccccc3C2)C[C@@H]1NS(C)(=O)=O`, 7.83%.
For `COc1cc(N(C)CCCn2nc(C)cc2C)ncn1` the value was -10.8%; for `CC(C)CC(O)C1CCN(Cc2cnc(-c3cccs3)nc2)CC1` (stereo not given), 37.1%.
Regarding `O=C(c1csnn1)N1CCc2[nH]nc(COc3cccc(Cl)c3)c2C1`, the cytotoxicity at 70.5 h was -2.42%.
